Assay results taken from ChEMBL document CHEMBL1201862, “PubChem BioAssay data set” (2004).
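Briefly, cells in 96-well plates were exposed to five compound concentrations for 48 h, and endpoints were estimated by linear interpolation. GI50 = concentration required for 50% inhibition of growth.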 Active and inactive are the calls of the source. Cut-off read from the data, not from the text of the source: active = GI50 up to about 1.1 µM and inactive = higher.

Columns and labels:
Assay in all cases: DTP human tumour cell line panel, 48 h
[1] = tested on: SN12C
[2] = tested on: MDA-MB-231
[3] = tested on: NCI-H460
[4] = tested on: U-251
[5] = tested on: RXF 393
[6] = tested on: MOLT-4
[7] = tested on: OVCAR-5
[8] = tested on: HCC 2998
[9] = tested on: OVCAR-4
[10] = tested on: NCI-H522
[11] = tested on: Hs-578T
[12] = tested on: SK-MEL-5
[13] = tested on: MDA-N
[14] = tested on: SK-MEL-2
[15] = tested on: DU-145
[16] = tested on: ACHN
[17] = tested on: M14
[18] = tested on: SF-268
[19] = tested on: MCF7
[20] = tested on: SR

SMILES | GI50 [1] | GI50 [2] | GI50 [3] | GI50 [4] | GI50 [5] | GI50 [6] | GI50 [7] | GI50 [8] | GI50 [9] | GI50 [10] | GI50 [11] | GI50 [12] | GI50 [13] | GI50 [14] | GI50 [15] | GI50 [16] | GI50 [17] | GI50 [18] | GI50 [19] | GI50 [20]
CCOC(=O)c1sc2nc(SC)nc3c2c1NCN3c1ccccc1Cl | > 100 µM (inactive) | 76.4 µM (inactive) | 30.7 µM (inactive) | 43.8 µM (inactive) | 19.3 µM (inactive) | > 100 µM (inactive) | > 100 µM (inactive) | 56.5 µM (inactive) | 38.5 µM (inactive) | 26.5 µM (inactive) | 35.4 µM (inactive) | 31.5 µM (inactive) | 71.4 µM (inactive) | 97.3 µM (inactive) | 75.3 µM (inactive) | 55.1 µM (inactive) | > 100 µM (inactive) | 38.7 µM (inactive) |  | 
O=[N+]([O-])c1ccc(/C=N/n2c(CO)nc3ccccc32)o1 | 5.35 µM (inactive) | 5.36 µM (inactive) | 3.29 µM (inactive) | 13.9 µM (inactive) | 5.07 µM (inactive) | 1.1 µM (active) | 11.9 µM (inactive) |  | 7.1 µM (inactive) | 2.28 µM (inactive) | 12.7 µM (inactive) | 2.14 µM (inactive) | 3.33 µM (inactive) | 4.67 µM (inactive) | 3.27 µM (inactive) | 4.25 µM (inactive) | 4.17 µM (inactive) | 10.4 µM (inactive) | 2.96 µM (inactive) | 
COC(=O)C1(C(=O)OC)CC2=C(S(=O)(=O)c3ccccc3)C[C@@H](C#N)[C@H]2C1 | > 100 µM (inactive) | > 100 µM (inactive) | 91.4 µM (inactive) | > 100 µM (inactive) |  | > 100 µM (inactive) | > 100 µM (inactive) | 16 µM (inactive) | > 100 µM (inactive) | 43.7 µM (inactive) |  | > 100 µM (inactive) | > 100 µM (inactive) | > 100 µM (inactive) | > 100 µM (inactive) | > 100 µM (inactive) | > 100 µM (inactive) | > 100 µM (inactive) | 47.5 µM (inactive) | 
COc1ccc2c(c1)CC[C@@H]1[C@@H]2CC[C@]2(C)C(=O)/C(=C/c3ccc(C#N)cc3)C[C@@H]12 | > 100 µM (inactive) | > 100 µM (inactive) | > 100 µM (inactive) | > 100 µM (inactive) | > 100 µM (inactive) | > 100 µM (inactive) | > 100 µM (inactive) | > 100 µM (inactive) | 77.1 µM (inactive) | > 100 µM (inactive) |  | > 100 µM (inactive) | > 100 µM (inactive) | > 100 µM (inactive) | > 100 µM (inactive) | > 100 µM (inactive) | > 100 µM (inactive) | > 100 µM (inactive) | > 100 µM (inactive) | > 100 µM (inactive)
CC(=O)Oc1ccc(-c2c(OC(C)=O)c(OC(C)=O)c(-c3ccc(OC(C)=O)c(OC(C)=O)c3)c(OC(C)=O)c2OC(C)=O)cc1 | 18.8 µM (inactive) | 18.6 µM (inactive) | 40.1 µM (inactive) | 17.5 µM (inactive) | 18.2 µM (inactive) | 20.2 µM (inactive) | 12.5 µM (inactive) |  | 17.6 µM (inactive) | 5.46 µM (inactive) |  | 11.7 µM (inactive) | 16.9 µM (inactive) | 16.1 µM (inactive) | 16.3 µM (inactive) | 16.4 µM (inactive) | 18.1 µM (inactive) | 17.7 µM (inactive) | 23.7 µM (inactive) | 23.9 µM (inactive)
O=NC1c2cccc3cccc(c23)C1N=O (stereo not drawn) |  |  | 4.36 µM (inactive) | 3.1 µM (inactive) | 3.51 µM (inactive) | 0.612 µM (active) | 2.83 µM (inactive) |  | 1.59 µM (inactive) | 1.93 µM (inactive) | 15.9 µM (inactive) | 14 µM (inactive) | 3.84 µM (inactive) |  | 11.1 µM (inactive) | 1.72 µM (inactive) | 12 µM (inactive) | 10.2 µM (inactive) | 7.93 µM (inactive) | 
N[C@H](CCC(=O)NCP(=O)(O)O)C(=O)O | > 100 µM (inactive) | > 100 µM (inactive) | > 100 µM (inactive) | > 100 µM (inactive) |  | > 100 µM (inactive) | > 100 µM (inactive) | > 100 µM (inactive) |  | > 100 µM (inactive) | > 100 µM (inactive) | > 100 µM (inactive) | > 100 µM (inactive) | > 100 µM (inactive) |  | > 100 µM (inactive) |  |  | > 100 µM (inactive) | > 100 µM (inactive)
CC[n+]1[b-](C(C)(C)C)n(/N=C/C(C)(C)C)[b-](C(C)(C)C)[n+]1CC | > 100 µM (inactive) | > 100 µM (inactive) | > 100 µM (inactive) | > 100 µM (inactive) | > 100 µM (inactive) | > 100 µM (inactive) | > 100 µM (inactive) | > 100 µM (inactive) | > 100 µM (inactive) | > 100 µM (inactive) | > 100 µM (inactive) | > 100 µM (inactive) | > 100 µM (inactive) | 70.3 µM (inactive) |  | > 100 µM (inactive) | > 100 µM (inactive) | > 100 µM (inactive) | > 100 µM (inactive) | > 100 µM (inactive)
COC(=O)Nc1cc(OCCCOC(C)=O)c2[nH]c(C(=O)OC)cc2c1C[C@H](O)CO | > 100 µM (inactive) | > 100 µM (inactive) |  | > 100 µM (inactive) |  | > 100 µM (inactive) | > 100 µM (inactive) | > 100 µM (inactive) | > 100 µM (inactive) | 2.94 µM (inactive) |  | > 100 µM (inactive) | > 100 µM (inactive) | > 100 µM (inactive) | > 100 µM (inactive) | > 100 µM (inactive) | > 100 µM (inactive) |  | > 100 µM (inactive) | > 100 µM (inactive)
CC(C)CCC[C@@H](C)[C@H]1CC[C@H]2[C@@H]3CC=C4C[C@@H](OC(=O)c5cccc6c(=O)c7ccccc7[nH]c56)CC[C@]4(C)[C@H]3CC[C@]12C | 1.92 µM (inactive) | 3.91 µM (inactive) |  | > 75 µM (inactive) | > 75 µM (inactive) | > 75 µM (inactive) | > 75 µM (inactive) | > 75 µM (inactive) | 3.5 µM (inactive) | > 75 µM (inactive) | > 75 µM (inactive) | > 75 µM (inactive) | 1.56 µM (inactive) | > 75 µM (inactive) |  | > 75 µM (inactive) | > 75 µM (inactive) | > 75 µM (inactive) | > 75 µM (inactive) | > 75 µM (inactive)
Nc1nc(N)c2nc(CNc3ccc(C(=O)NC(CCCCNC(=O)c4ccccc4C(=O)O)C(=O)O)cc3)cnc2n1 (stereo not drawn) | 0.01 µM (active) |  | 0.01 µM (active) | 0.01 µM (active) | 0.01 µM (active) | 0.01 µM (active) | > 85.3 µM (inactive) | 0.01 µM (active) | > 100 µM (inactive) | 5.38 µM (inactive) | > 100 µM (inactive) | < 0.0119 µM (active) | 0.01 µM (active) | 68.4 µM (inactive) | 0.01 µM (active) | 0.01 µM (active) | 0.01 µM (active) | 0.01 µM (active) | 0.01 µM (active) | 0.01 µM (active)
COC1(OC)C[C@H](C)[C@@]23O[C@]24c2cc(O)c5c(c2N[C@H]3C#C/C=C\C#C[C@]14O)C(=O)c1ccccc1C5=O | 0.00136 µM (active) | 0.0142 µM (active) | < 0.001 µM (active) | 0.005 µM (active) | 0.005 µM (active) |  | 0.00692 µM (active) | 0.00805 µM (active) | 0.0964 µM (active) | 0.00635 µM (active) | 0.0705 µM (active) | 0.005 µM (active) | 0.00597 µM (active) |  | 0.005 µM (active) |  | 0.005 µM (active) | 0.005 µM (active) | 0.005 µM (active) | 
CCCCC(C)(C/C=C/[C@@H]1[C@@H](C(O)CCCCCC(=O)OC)C(=O)C[C@H]1O[Si](C)(C)C(C)(C)C)O[Si](C)(C)C (stereo partly drawn) | > 100 µM (inactive) | > 100 µM (inactive) | 83.4 µM (inactive) | 57.5 µM (inactive) | 54.2 µM (inactive) | 19.7 µM (inactive) | > 100 µM (inactive) | > 100 µM (inactive) | 86.7 µM (inactive) | 23.2 µM (inactive) |  | 92.7 µM (inactive) |  | 58.7 µM (inactive) | > 100 µM (inactive) | 86.5 µM (inactive) | > 100 µM (inactive) | 39.1 µM (inactive) | 42 µM (inactive) | 25.3 µM (inactive)
O=C1CC(c2ccc(O)cc2)C2(O1)C(=O)OC(C(O)CO)C2O (stereo not drawn) | > 100 µM (inactive) | > 100 µM (inactive) |  | > 100 µM (inactive) | > 100 µM (inactive) | > 100 µM (inactive) | > 100 µM (inactive) |  |  |  | > 100 µM (inactive) | > 100 µM (inactive) |  | > 100 µM (inactive) | > 100 µM (inactive) | > 100 µM (inactive) | > 100 µM (inactive) | > 100 µM (inactive) | > 100 µM (inactive) | 
COc1ccc2sc(-n3nc4ccccc4c3Nc3nc4ccc(OC)cc4s3)nc2c1 | 3.07 µM (inactive) | 2.07 µM (inactive) | 2.22 µM (inactive) | 2.76 µM (inactive) | 11 µM (inactive) |  | 2.88 µM (inactive) | 1.43 µM (inactive) | 1.86 µM (inactive) | 2.52 µM (inactive) | 1.46 µM (inactive) | 2.26 µM (inactive) |  | 15 µM (inactive) | 2.98 µM (inactive) | 2.6 µM (inactive) | 7.24 µM (inactive) | 5.01 µM (inactive) | 6.47 µM (inactive) | 23.4 µM (inactive)
